Source: PubChem BioAssay AID504611 (National Center for Advancing Translational Sciences (NCATS), 2011)

Tested on: Caco-2 monolayer permeability, A-to-B, LC-MS/MS
Assay: Inhibitors of 12-hLO: Caco-2 Permeability Profiling
Settings: active compounds read high
Source text: Assay Provider: Holman, T.R., University of California, Santa Cruz Grant #: MH08128301 Screening Center PI: Austin, C.P. Screening Center: NIH Chemical Genomics Center [NCGC] Human lipoxygenase 12hLO is a member of the closely related lipoxygenase family of enzymes which catalyze the site-specific oxidation of arachidonic acid to various hormone precursor molecules and as such is a candidate for drug development in a variety of disease areas, such as cancer and inflammation. After qHTS, hits were confirmed in follow-up assays, and leads were optimized through SAR. The resulting lead compound was further characterized through a battery ADME-Tox experiments and this assay describes its Caco-2 permeability. This permeability assay predicts the in vivo absorption of the lead across the intestinal lining by using a Caco-2 cell line and measuring the lead's rate of transport […].
1. Buffer Preparation: Prepare 1M HEPES: add 23.83g HEPES to 100ml of 0.85% NaCl Prepare HBSS+ buffer: add 12.8ml of 1M HEPES in 0.85% NaCl to 500ml HBSS buffer. 2. Take out the compounds from -80 degrees C, ultrasonicate or pre-warm for a few minutes to thaw the compounds. 3. […] The T0, LY and T90, LY plates are read by FlexStation 3 at excitation of 485 nm and emission of 535 nm to determine LY permeability. […]

permeability Papp: 8.8 10^-6 cm/s
Compound: CC(=O)NC(c1cccs1)c1cc(Br)c2cccnc2c1O (stereo unspecified)
